{"source": "patent US20220128542A1", "about": "“TREATMENT EFFICIENCY EVALUATION” (TX MEDIC AB, priority 2019, published 2022)", "test_system": "brain of rats subjected to severe traumatic brain injury (sTBI)", "assay": "HPLC of free amino acids and amino group containing compounds in brain after sTBI (Example 1)", "format": "in vivo, rat", "description": "They were divided into three groups:\n1) n=6 animals subjected to sTBI, with drug administration after 30 minutes and sacrifice at 2 days post-TBI (Acute phase 1)\n2) n=6 animals subjected to sTBI, with drug administration after 30 minutes and sacrifice at 7 days post-TBI (Acute phase 2).\n3) n=6 animals subjected to sTBI, with drug administration after 3 days and sacrifice at 7 days post-TBI (Chronic phase).\nThe drug treatment was a subcutaneous injection of 0.5 ml of LMW-DS (15 mg/kg) and administered according to the aforementioned schematic protocol.\nAfter the wet weight (w.w.) determination, tissue preparation was affected as previously disclosed (Tavazzi et al., Neurosurgery. 2005; 56: 582-589; Vagnozzi et al., Neurosurgery. 2007; 61: 379-388; Tavazzi et al., Neurosurgery. 2007; 61: 390-395; Amorini et al., J Cell Mol Med. 2017; 21: 530-542.). Briefly, whole brain homogenization was performed with 7 ml of ice-cold, nitrogen-saturated, precipitating solution composed by CH3CN+10 mM KH2PO4, pH 7.40, (3:1; v:v), and using an Ultra-Turrax set at 24,000 rpm/min (Janke & Kunkel, Staufen, Germany). After centrifugation at 20,690×g, for 10 min at 4° C., the clear supernatants were saved, pellets were supplemented with 3 ml of the precipitating solution and homogenized again as described above. A second centrifugation was performed (20,690×g, for 10 min at 4° C.), pellets were saved, supernatants combined with those previously obtained, extracted by vigorous agitation with a double volume of HPLC-grade CHCl3 and centrifuged as above. The upper aqueous phases containing water-soluble low-molecular weight compounds were collected, subjected to chloroform washings for two more times (this procedure allowed the removal of all the organic solvent and of any lipid soluble compound from the buffered tissue extracts), adjusted in volumes with 10 mM KH2PO4, pH 7.40, to have ultimately aqueous 10% tissue homogenates and saved at −80° C. until assayed.\nThe simultaneous determination of primary free amino acids (FAA) and amino group containing compounds (AGCC) (listed below) was performed using the precolumn derivatization of the sample with a mixture of Ortho-phthalaldehyde (OPA) and 3-Mercaptopropionic acid (MPA), as described in detail elsewhere (Amorini et al., J Cell Mol Med. 2017; 21: 530-542; Amorini et al., Mol Cell Biochem. 2012; 359: 205-216). […] The automated precolumn derivatization of the samples (15 μl) with OPA-MPA was carried out at 24° C. and 25 μl of the derivatized mixture were loaded onto the HPLC column (Hypersil C-18, 250×4.6 mm, 5 μm particle size, thermostated at 21° C.) for the subsequent chromatographic separation. In the case of glutamate, deproteinized brain extracts were diluted 20 times with HPLC-grade H2O prior to the derivatization procedure and subsequent injection. Separation of OPA-AA and OPA-AGCC was carried out at a flow rate of 1.2 ml/min using two mobile phases (mobile phase A=24 mmol/l CH3COONa+24 mmol/l Na2HPO4+1% tetrahydrofurane+0.1% trifluoroacetic acid, pH 6.5; mobile phase B=40% CH3OH+30% CH3CN+30% H2O), using an appropriate step gradient (Amorini et al., J Cell Mol Med. 2017; 21: 530-542; Amorini et al., Mol Cell Biochem. 2012; 359: 205-216).\nAssignment and calculation of the OPA-AA and OPA-AGCC in chromatographic runs of whole brain extracts were carried out at 338 nm wavelengths by comparing retention times and areas of peaks with those of peaks of chromatographic runs of freshly-prepared ultra-pure standard mixtures with known concentrations. […]", "key": {"[1]": {"conditions": "Acute phase 1: 15 mg/kg s.c. 30 min post-sTBI, sacrifice day 2"}, "[2]": {"conditions": "Acute phase 2: 15 mg/kg s.c. 30 min post-sTBI, sacrifice day 7"}, "[3]": {"conditions": "Chronic phase: 15 mg/kg s.c. 3 days post-sTBI, sacrifice day 7"}}, "note": "Marks after values point to notes of the source that are not given here."}
{"substance": "sodium salt of dextran sulfate [LMW-DS]", "values": [{"measurement": "effect on sTBI-induced increase in glutamate (GLU)", "setting": "15 mg/kg s.c. early post-injury (30 min following sTBI)", "result": "remarkable inhibition"}, {"measurement": "effect on glutamate excitotoxicity marker", "setting": "15 mg/kg s.c. injected at 3 days after sTBI", "result": "no efficacy"}, {"measurement": "ALA cerebral concentration", "setting": "[1]", "result": "0.50 ± 0.12^a μmol/g (w.w.)"}, {"measurement": "ARG cerebral concentration", "setting": "[1]", "result": "0.13 ± 0.02^b, d μmol/g (w.w.)"}, {"measurement": "ASN cerebral concentration", "setting": "[1]", "result": "0.12 ± 0.02^i μmol/g (w.w.)"}, {"measurement": "ASP cerebral concentration", "setting": "[1]", "result": "2.40 ± 0.56^d, i μmol/g (w.w.)"}, {"measurement": "CITR cerebral concentration", "setting": "[1]", "result": "0.018 ± 0.004 µmol/g (w.w.)"}, {"measurement": "GABA cerebral concentration", "setting": "[1]", "result": "1.43 ± 0.25^a μmol/g (w.w.)"}, {"measurement": "GLN cerebral concentration", "setting": "[1]", "result": "4.78 ± 1.09^a μmol/g (w.w.)"}, {"measurement": "GLU cerebral concentration", "setting": "[1]", "result": "9.81 ± 1.66^i μmol/g (w.w.)"}, {"measurement": "GLY cerebral concentration", "setting": "[1]", "result": "0.83 ± 0.25^a, c μmol/g (w.w.)"}, {"measurement": "HIS cerebral concentration", "setting": "[1]", "result": "0.068 ± 0.015^b μmol/g (w.w.)"}, {"measurement": "ILE cerebral concentration", "setting": "[1]", "result": "0.038 ± 0.007 µmol/g (w.w.)"}, {"measurement": "L-Cystat cerebral concentration", "setting": "[1]", "result": "0,185 ± 0.031^b, c, i μmol/g (w.w.)"}, {"measurement": "LEU cerebral concentration", "setting": "[1]", "result": "0.021 ± 0.005^a, c μmol/g (w.w.)"}, {"measurement": "LYS cerebral concentration", "setting": "[1]", "result": "0.236 ± 0.057^b, d, h μmol/g (w.w.)"}, {"measurement": "MET cerebral concentration", "setting": "[1]", "result": "0.016 ± 0.005^d, j μmol/g (w.w.)"}, {"measurement": "ORN cerebral concentration", "setting": "[1]", "result": "0.014 ± 0.007 µmol/g (w.w.)"}, {"measurement": "PHE cerebral concentration", "setting": "[1]", "result": "0.031 ± 0.011^b, d μmol/g (w.w.)"}, {"measurement": "SAH cerebral concentration", "setting": "[1]", "result": "0.033 ± 0.008^b, c, j μmol/g (w.w.)"}, {"measurement": "SER cerebral concentration", "setting": "[1]", "result": "0.88 ± 0.25^a μmol/g (w.w.)"}, {"measurement": "TAU cerebral concentration", "setting": "[1]", "result": "4.86 ± 0.85^b μmol/g (w.w.)"}, {"measurement": "THR cerebral concentration", "setting": "[1]", "result": "0.92 ± 0.29^a μmol/g (w.w.)"}, {"measurement": "TRP cerebral concentration", "setting": "[1]", "result": "0.030 ± 0.007^b, dg, i μmol/g (w.w.)"}, {"measurement": "TYR cerebral concentration", "setting": "[1]", "result": "0.15 ± 0.03 µmol/g (w.w.)"}, {"measurement": "VAL cerebral concentration", "setting": "[1]", "result": "0.042 ± 0.011 µmol/g (w.w.)"}, {"measurement": "ALA cerebral concentration", "setting": "[2]", "result": "0.52 ± 0.24^a, e μmol/g (w.w.)"}, {"measurement": "ARG cerebral concentration", "setting": "[2]", "result": "0.16 ± 0.03 µmol/g (w.w.)"}, {"measurement": "ASN cerebral concentration", "setting": "[2]", "result": "0.13 ± 0.03^i μmol/g (w.w.)"}, {"measurement": "ASP cerebral concentration", "setting": "[2]", "result": "2.94 ± 0.98^f, j μmol/g (w.w.)"}, {"measurement": "CITR cerebral concentration", "setting": "[2]", "result": "0.018 ± 0.008 µmol/g (w.w.)"}, {"measurement": "GABA cerebral concentration", "setting": "[2]", "result": "1.60 ± 0.24^a μmol/g (w.w.)"}, {"measurement": "GLN cerebral concentration", "setting": "[2]", "result": "3.66 ± 0.41 µmol/g (w.w.)"}, {"measurement": "GLU cerebral concentration", "setting": "[2]", "result": "9.93 ± 1.56^e, i μmol/g (w.w.)"}, {"measurement": "GLY cerebral concentration", "setting": "[2]", "result": "0.71 ± 0.16^f, i μmol/g (w.w.)"}, {"measurement": "HIS cerebral concentration", "setting": "[2]", "result": "0.055 ± 0.019 µmol/g (w.w.)"}, {"measurement": "ILE cerebral concentration", "setting": "[2]", "result": "0.048 ± 0.017^a μmol/g (w.w.)"}, {"measurement": "L-Cystat cerebral concentration", "setting": "[2]", "result": "0.173 ± 0.038^b, f, i μmol/g (w.w.)"}, {"measurement": "LEU cerebral concentration", "setting": "[2]", "result": "0.018 ± 0.004 µmol/g (w.w.)"}, {"measurement": "LYS cerebral concentration", "setting": "[2]", "result": "0.32 ± 0.04^a, e, i μmol/g (w.w.)"}, {"measurement": "MET cerebral concentration", "setting": "[2]", "result": "0.022 ± 0.006^b, e, i μmol/g (w.w.)"}, {"measurement": "ORN cerebral concentration", "setting": "[2]", "result": "0.011 ± 0.005 µmol/g (w.w.)"}, {"measurement": "PHE cerebral concentration", "setting": "[2]", "result": "0.028 ± 0.010 µmol/g (w.w.)"}, {"measurement": "SAH cerebral concentration", "setting": "[2]", "result": "0.026 ± 0.010^f, i μmol/g (w.w.)"}, {"measurement": "SER cerebral concentration", "setting": "[2]", "result": "0.71 ± 0.28^b μmol/g (w.w.)"}, {"measurement": "TAU cerebral concentration", "setting": "[2]", "result": "3.80 ± 1.19 µmol/g (w.w.)"}, {"measurement": "THR cerebral concentration", "setting": "[2]", "result": "0.66 ± 0.23 µmol/g (w.w.)"}, {"measurement": "TRP cerebral concentration", "setting": "[2]", "result": "0.015 ± 0.006 µmol/g (w.w.)"}, {"measurement": "TYR cerebral concentration", "setting": "[2]", "result": "0.172 ± 0.046^b, f μmol/g (w.w.)"}, {"measurement": "VAL cerebral concentration", "setting": "[2]", "result": "0.057 ± 0.017 µmol/g (w.w.)"}, {"measurement": "ALA cerebral concentration", "setting": "[3]", "result": "0.57 ± 0.28^a, e μmol/g (w.w.)"}, {"measurement": "ARG cerebral concentration", "setting": "[3]", "result": "0.14 ± 0.02 µmol/g (w.w.)"}, {"measurement": "ASN cerebral concentration", "setting": "[3]", "result": "0.18 ± 0.02^a μmol/g (w.w.)"}, {"measurement": "ASP cerebral concentration", "setting": "[3]", "result": "4.46 ± 0.70^a, f μmol/g (w.w.)"}, {"measurement": "CITR cerebral concentration", "setting": "[3]", "result": "0.020 ± 0.006 µmol/g (w.w.)"}, {"measurement": "GABA cerebral concentration", "setting": "[3]", "result": "1.85 ± 0.65^a μmol/g (w.w.)"}, {"measurement": "GLN cerebral concentration", "setting": "[3]", "result": "3.98 ± 0.34 µmol/g (w.w.)"}, {"measurement": "GLU cerebral concentration", "setting": "[3]", "result": "13.58 ± 1.28^a μmol/g (w.w.)"}, {"measurement": "GLY cerebral concentration", "setting": "[3]", "result": "1.05 ± 0.13^a, f μmol/g (w.w.)"}, {"measurement": "HIS cerebral concentration", "setting": "[3]", "result": "0.047 ± 0.021 µmol/g (w.w.)"}, {"measurement": "ILE cerebral concentration", "setting": "[3]", "result": "0.041 ± 0.016^b μmol/g (w.w.)"}, {"measurement": "L-Cystat cerebral concentration", "setting": "[3]", "result": "0.26 ± 0.05^a, f μmol/g (w.w.)"}, {"measurement": "LEU cerebral concentration", "setting": "[3]", "result": "0.024 ± 0.032^b, f μmol/g (w.w.)"}, {"measurement": "LYS cerebral concentration", "setting": "[3]", "result": "0.179 ± 0.036 µmol/g (w.w.)"}, {"measurement": "MET cerebral concentration", "setting": "[3]", "result": "0.009 ± 0.004^b μmol/g (w.w.)"}, {"measurement": "ORN cerebral concentration", "setting": "[3]", "result": "0.017 ± 0.009^a, e μmol/g (w.w.)"}, {"measurement": "PHE cerebral concentration", "setting": "[3]", "result": "0.033 ± 0.011^b μmol/g (w.w.)"}, {"measurement": "SAH cerebral concentration", "setting": "[3]", "result": "0.050 ± 0.013^a μmol/g (w.w.)"}, {"measurement": "SER cerebral concentration", "setting": "[3]", "result": "0.93 ± 0.27^a, e μmol/g (w.w.)"}, {"measurement": "TAU cerebral concentration", "setting": "[3]", "result": "4.49 ± 0.43^a μmol/g (w.w.)"}, {"measurement": "THR cerebral concentration", "setting": "[3]", "result": "0.75 ± 0.24^a, e μmol/g (w.w.)"}, {"measurement": "TRP cerebral concentration", "setting": "[3]", "result": "0.012 ± 0.007 µmol/g (w.w.)"}, {"measurement": "TYR cerebral concentration", "setting": "[3]", "result": "0.21 ± 0.05^f μmol/g (w.w.)"}, {"measurement": "VAL cerebral concentration", "setting": "[3]", "result": "0.040 ± 0.016^b μmol/g (w.w.)"}]}
